The source of these data is patent US20220154404A1, “Active Materials, Surfaces, Surface Treatments And Methods For Packaging Materials, Boxes, And Containers Using Photosensitizers For Pathogen Reduction” (Mi2 Holdings LLC, priority 2020, published 2022).

The conditions of data set [1]: ideal solvent; cited from earlier work.
The conditions of data set [2]: cited from earlier work; for Epsilon: ideal solvent.
Data set [3] can be described thus: Absorption characteristics of photosensitizers with peak absorptions in visible light (Lambda Max, Epsilon). Type of data set: physicochemical. The conditions noted are these: determined in water. From the text: Examples of photosensitizers having peak absorptions in visible light and their absorption characteristics is: […]
The conditions of data set [4]: cited from earlier work.

Read-outs that look alike come from different tables or passages of the source.

As to `C=Cc1c(C)c2cc3nc(c(CC(=O)O)c4[nH]c(cc5nc(cc1[nH]2)C(C)=C5CC)c(C)c4C(=O)O)[C@@H](CCC(=O)O)[C@@H]3C` [Chlorin e6, chlorin e6], the “Singlet Oxygen QY” value in data set [1] is given as 0.65. The “Lambda Max” value in data set [2] (first or only peak) was 400; in data set [2] (second peak (after the slash)), 650. In addition, the values for the Epsilon in data set [3] (first or only peak) and in data set [3] (second peak (after the slash)) were 150,000 and 30,000, respectively.

`O=C([O-])c1ccccc1-c1c2cc(Br)c(=O)c(Br)c-2oc2c(Br)c([O-])c(Br)cc12.[Na+].[Na+]` [Eosin Y]: in data set [2] (first or only peak), the “Lambda Max” value is 525 and the Epsilon is 112,000.

For `O.O=C([O-])c1ccccc1-c1c2cc(I)c(=O)c(I)c-2oc2c(I)c([O-])c(I)cc12.[Na+].[Na+]` [Erythrosin B], the “Singlet Oxygen QY” value in data set [1] is recorded as 0.63. For the same compound, in data set [2] (first or only peak), the “Lambda Max” value is on record as 530 and the Epsilon was 82,000.

On to `CN(C)c1ccc2nc3ccc(=[N+](C)C)cc-3sc2c1` [Methylene Blue, methylene blue (CAS #61-73-4)], for which, in data set [1], the “Singlet Oxygen QY” value is 0.52. Also, the “Lambda Max” value in data set [2] (first or only peak) was 665. Further, the Epsilon in data set [3] (first or only peak) is reported as 48,000.

Turning to `CCNc1cc2[s+]c3cc(NCC)c(C)cc3nc2cc1C.[Cl-]` [New MB], in data set [2] (first or only peak), the “Lambda Max” value is recorded as 630. In addition, the Epsilon in data set [3] (first or only peak) is 64,000.

Regarding `O=C([O-])c1c(Cl)c(Cl)c(Cl)c(Cl)c1-c1c2cc(I)c(=O)c(I)c-2oc2c(I)c([O-])c(I)cc12.[Na+].[Na+]` [Rose Bengal, Rose Bengal (CAS #632-69-9)], the “Singlet Oxygen QY” value in data set [1] was 0.76. Further, in data set [2] (first or only peak), the “Lambda Max” value is reported as 562 and the Epsilon is 90,000.

Regarding `C=Cc1c(C)c2cc3nc(c(CC(=O)N[C@@H](CC(=O)O)C(=O)O)c4[nH]c(cc5nc(cc1[nH]2)C(C)=C5CC)c(C)c4C(=O)O)[C@@H](CCC(=O)O)[C@@H]3C` [Talaporfin (LS11, MACE, NPs6), Talaporfin], in data set [1], the “Singlet Oxygen QY” value is on record as 0.77. The results for the “Lambda Max” value in data set [2] (first or only peak) and in data set [2] (second peak (after the slash)) were 400 and 654, respectively. Besides, the figures for the Epsilon in data set [2] (first or only peak) and in data set [2] (second peak (after the slash)) were 180,000 and 40,000, respectively.

With IRDye 700DX HHS Ester [IR700], the water solubility result in data set [4] was “good solubility”.

Verteporfin: in data set [2] (first or only peak), the “Lambda Max” value is recorded as 435 and the Epsilon is given as ~70,000.
